EP0191520A1, “(1-phenylmethyl-5-hydroxy-1H-indazol-3-yl)-oxyacetic acid and salts thereof for use as a medicament, and pharmaceutical compositions containing them” (AZIENDE CHIMICHE RIUNITE ANGELINI FRANCESCO A.C.R.A.F. …, priority 1985, dated 1986)
Read-outs that look alike come from different tables or passages of the source. One block for each molecule: values may come before it.

Experiments:
albumin of beef serum = target: T1, albumin of beef serum (Bos taurus, UniProt P02769); test: protective effect on protein denaturation from UV rays (method of Silvestrini et al.); type: biochemical; conditions: for inhibition at 50 µM: molar conc. .00005; for inhibition at 200 µM: molar conc. .0002
T1 construct: albumin of beef serum; from tissue; host or cells: beef serum
Description: The Compounds of formulas I and II were tested under experimental conditions designed to show the protective effect on protein denaturation from UV rays according to the method of Silvestrini et al. (Int. J. Tiss. Reac. 5, 217-225, 1983) which comprises the measurement of the protective action of the compound under examination on the denaturation of the albumin of beef serum submitted to UV rays for 30 minutes.

[1] = test system: bilateral senile cataract; test: preliminary tests on man: cataract therapy for three months, oral or topical; type: in vivo; conditions: 10 patients
Description: Preliminary tests on man confirmed the action of Compound II in cataract therapy.
Two groups of 10 patients afflicted by bilateral senile cataract with cortical or subcapsular or cortinuclear localization, in the initial evolutive stage, without fundus alterations and with a distant visus from 5 to 9 tenths (after correction of any refraction error) were treated for three months with Compound II orally (100 mg tablet; 1 tablet, three times a day) and topically (0.1% collyrium; 1 drop in the conjunctival sac of each eye three times a day) respectively.
The effect of the treatment was evaluated by monitoring the variations in the visus, in the refraction error, and in lenticular opacity (by biomicroscopy with a slit lamp and by ophthalmoscopy).

[2] = UV rays for 30 minutes, read-out: % INHIBITION MEAN
[3] = single determinations, UV rays for 30 minutes, read-out: % INHIBITION
[4] = orally, 100 mg tablet three times a day
[5] = topically, 0.1% collyrium, 1 drop in each eye three times a day

T1 sequence (P02769 25-607): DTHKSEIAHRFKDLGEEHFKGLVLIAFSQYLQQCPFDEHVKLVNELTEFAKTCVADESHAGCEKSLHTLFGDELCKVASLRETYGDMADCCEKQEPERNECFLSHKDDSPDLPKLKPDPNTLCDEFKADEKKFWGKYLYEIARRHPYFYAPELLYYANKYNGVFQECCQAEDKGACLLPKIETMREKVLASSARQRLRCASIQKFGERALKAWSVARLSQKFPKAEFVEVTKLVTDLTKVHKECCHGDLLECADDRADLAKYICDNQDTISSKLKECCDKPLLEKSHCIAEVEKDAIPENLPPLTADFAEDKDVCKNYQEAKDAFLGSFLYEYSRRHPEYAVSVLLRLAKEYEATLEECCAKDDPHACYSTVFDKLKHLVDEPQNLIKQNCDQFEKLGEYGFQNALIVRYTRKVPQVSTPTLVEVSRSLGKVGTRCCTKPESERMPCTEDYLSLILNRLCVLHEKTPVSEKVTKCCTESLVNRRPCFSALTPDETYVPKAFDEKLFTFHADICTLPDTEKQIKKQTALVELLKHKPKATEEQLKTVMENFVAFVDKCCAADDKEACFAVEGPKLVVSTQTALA

- inhibition at 250 µM (albumin of beef serum; molar conc. .00025, UV rays for 30 minutes): 12%
- inhibition at 500 µM (albumin of beef serum; molar conc. .0005, UV rays for 30 minutes): 21%
- inhibition at 1000 µM (albumin of beef serum; molar conc. .001, UV rays for 30 minutes): 42%
- inhibition at 2000 µM (albumin of beef serum; molar conc. .002, UV rays for 30 minutes): 61%
SMILES: O=C(O)COc1nn(Cc2ccccc2)c2ccccc12 [Compound I, bendazac lysinate, reference compound]

- inhibition at 50 µM (albumin of beef serum; [2]): 10%
- inhibition at 50 µM (albumin of beef serum; [3]): 8 to 13%
- inhibition at 100 µM (albumin of beef serum; molar conc. .0001, UV rays for 30 minutes): 77%
- inhibition at 200 µM (albumin of beef serum; [2]): 92%
- inhibition at 200 µM (albumin of beef serum; [3]): 85 to 100%
- times as active as Compound I (albumin of beef serum; relative activity versus Compound I in this test): at least 10 times
SMILES: O=C(O)COc1nn(Cc2ccccc2)c2ccc(O)cc12 [Compound II, (5-hydroxy-1-benzyl)-indazolyl-3-oxyacetic acid]
- opacity decreased [1, 4]: 6 eyes
- opacity increased [1, 4]: 1 eye
- opacity remained unchanged [1, 4]: 13 eyes
- overall clinical judgement: patients improved [1, 4]: 7 patients
- overall clinical judgement: remained unchanged [1, 4]: 2 patients
- overall clinical judgement: worsened slightly [1, 4]: one
- overall clinical judgement: patients improved greatly ([1]; orally, 100 mg tablet three times a day, part of the 7 improved): 4 patients
- mean visus value increased ([1]; orally, 100 mg tablet three times a day, t = 3.58, P < 0.01): 16.79%
- opacity decreased [1, 5]: 7 eyes
- opacity increased [1, 5]: 2 eyes
- opacity remained unchanged [1, 5]: 11 eyes
- overall clinical judgement: patients improved [1, 5]: 4 patients
- overall clinical judgement: remained unchanged [1, 5]: 5 patients
- overall clinical judgement: worsened [1, 5]: one
- mean visus value increased ([1]; topically, 0.1% collyrium, 1 drop in each eye three times a day, t = 2.54, P < 0.05): 12.78%
